ChEMBL document CHEMBL1129930, “Analogues of methotrexate in rheumatoid arthritis. 2. Effects of 5-deazaaminopterin, 5,10-dideazaaminopterin, and analogues on type II collagen-induced arthritis in mice” (J Med Chem, 1997)

Tests used:
[1] = system: Mus musculus; experiment: Incidence of disease (mouse type II collagen) was scored as the percentage of animals within each experimental group that exhibited joint or limb inflammation on day 23 at intraperitoneal dose of 8 mg/kg; assay type: functional
[2] = system: Mus musculus; experiment: Incidence of disease (mouse type II collagen) was scored as the percentage of animals within each experimental group that exhibited joint or limb inflammation on day 30 at intraperitoneal dose of 8 mg/kg; assay type: functional
[3] = system: Mus musculus; experiment: Incidence of disease (mouse type II collagen) was scored as the percentage of animals within each experimental group that exhibited joint or limb inflammation on day 37 at intraperitoneal dose of 8 mg/kg; assay type: functional
[4] = system: Mus musculus; experiment: Incidence of disease (mouse type II collagen) was scored as the percentage of animals within each experimental group that exhibited joint or limb inflammation on day 44 at intraperitoneal dose of 8 mg/kg; assay type: functional
[5] = system: Mus musculus; experiment: Tested for antiinflammatory activity on mouse type II collagen arthritis as Paw swelling of all animals in each group on day 44 at intraperitoneal dose of 8 mg/kg; assay type: functional
[6] = system: Mus musculus; experiment: Tested for antiinflammatory activity on mouse type II collagen arthritis as Paw swelling of all animals in each group on day 23 at intraperitoneal dose of 8 mg/kg; assay type: functional
[7] = system: Mus musculus; experiment: Tested for antiinflammatory activity on mouse type II collagen arthritis as Paw swelling of all animals in each group on day 37 at intraperitoneal dose of 8 mg/kg; assay type: functional
[8] = system: Mus musculus; experiment: Tested for antiinflammatory activity on mouse type II collagen arthritis as Paw swelling of all animals in each group on day 30 at intraperitoneal dose of 8 mg/kg; assay type: functional
[9] = Concentration required to inhibit the growth of chang liver cells.; assay type: functional; details: Homo sapiens
[10] = system: L1210; experiment: Concentration required to inhibit the growth of L1210 cells.; assay type: functional, cell-based; details: Mus musculus
[11] = system: Mus musculus; experiment: Incidence of disease (mouse type II collagen) was scored as the percentage of animals within each experimental group that exhibited joint or limb inflammation on day 37 at intraperitoneal dose of 0.75 mg/kg; assay type: functional
[12] = system: Mus musculus; experiment: Incidence of disease (mouse type II collagen) was scored as the percentage of animals within each experimental group that exhibited joint or limb inflammation on day 37 at intraperitoneal dose of 1.5 mg/kg; assay type: functional
[13] = system: Mus musculus; experiment: Incidence of disease (mouse type II collagen) was scored as the percentage of animals within each experimental group that exhibited joint or limb inflammation on day 37 at intraperitoneal dose of 3 mg/kg; assay type: functional
[14] = system: Mus musculus; experiment: Incidence of disease (mouse type II collagen) was scored as the percentage of animals within each experimental group that exhibited joint or limb inflammation on day 23 at intraperitoneal dose of 0.38 mg/kg; assay type: functional
[15] = system: Mus musculus; experiment: Incidence of disease (mouse type II collagen) was scored as the percentage of animals within each experimental group that exhibited joint or limb inflammation on day 23 at intraperitoneal dose of 0.75 mg/kg; assay type: functional
[16] = system: Mus musculus; experiment: Incidence of disease (mouse type II collagen) was scored as the percentage of animals within each experimental group that exhibited joint or limb inflammation on day 23 at intraperitoneal dose of 1.5 mg/kg; assay type: functional
[17] = system: Mus musculus; experiment: Incidence of disease (mouse type II collagen) was scored as the percentage of animals within each experimental group that exhibited joint or limb inflammation on day 23 at intraperitoneal dose of 3 mg/kg; assay type: functional
[18] = system: Mus musculus; experiment: Incidence of disease (mouse type II collagen) was scored as the percentage of animals within each experimental group that exhibited joint or limb inflammation on day 23 at intraperitoneal dose of 6 mg/kg; assay type: functional
[19] = system: Mus musculus; experiment: Incidence of disease (mouse type II collagen) was scored as the percentage of animals within each experimental group that exhibited joint or limb inflammation on day 37 at intraperitoneal dose of 0.38 mg/kg; assay type: functional
[20] = system: Mus musculus; experiment: Incidence of disease (mouse type II collagen) was scored as the percentage of animals within each experimental group that exhibited joint or limb inflammation on day 44 at intraperitoneal dose of 1.5 mg/kg; assay type: functional
[21] = system: Mus musculus; experiment: Incidence of disease (mouse type II collagen) was scored as the percentage of animals within each experimental group that exhibited joint or limb inflammation on day 44 at intraperitoneal dose of 3 mg/kg; assay type: functional
[22] = system: Mus musculus; experiment: Incidence of disease (mouse type II collagen) was scored as the percentage of animals within each experimental group that exhibited joint or limb inflammation on day 44 at intraperitoneal dose of 6 mg/kg; assay type: functional
[23] = system: Mus musculus; experiment: Incidence of disease (mouse type II collagen) was scored as the percentage of animals within each experimental group that exhibited joint or limb inflammation on day 44 at intraperitoneal dose of 0.38 mg/kg; assay type: functional
[24] = system: Mus musculus; experiment: Incidence of disease (mouse type II collagen) was scored as the percentage of animals within each experimental group that exhibited joint or limb inflammation on day 44 at intraperitoneal dose of 0.75 mg/kg; assay type: functional
[25] = system: Mus musculus; experiment: Incidence of disease (mouse type II collagen) was scored as the percentage of animals within each experimental group that exhibited joint or limb inflammation on day 30 at intraperitoneal dose of 3 mg/kg; assay type: functional
[26] = system: Mus musculus; experiment: Incidence of disease (mouse type II collagen) was scored as the percentage of animals within each experimental group that exhibited joint or limb inflammation on day 30 at intraperitoneal dose of 6 mg/kg; assay type: functional
[27] = system: Mus musculus; experiment: Incidence of disease (mouse type II collagen) was scored as the percentage of animals within each experimental group that exhibited joint or limb inflammation on day 37 at intraperitoneal dose of 6 mg/kg; assay type: functional
[28] = system: Mus musculus; experiment: Incidence of disease (mouse type II collagen) was scored as the percentage of animals within each experimental group that exhibited joint or limb inflammation on day 30 at intraperitoneal dose of 0.38 mg/kg; assay type: functional
[29] = system: Mus musculus; experiment: Incidence of disease (mouse type II collagen) was scored as the percentage of animals within each experimental group that exhibited joint or limb inflammation on day 30 at intraperitoneal dose of 0.75 mg/kg; assay type: functional
[30] = system: Mus musculus; experiment: Incidence of disease (mouse type II collagen) was scored as the percentage of animals within each experimental group that exhibited joint or limb inflammation on day 30 at intraperitoneal dose of 1.5 mg/kg; assay type: functional
[31] = system: Mus musculus; experiment: Tested for antiinflammatory activity on mouse type II collagen arthritis as Paw swelling of all animals in each group on day 44 at intraperitoneal dose of 1.5 mg/kg; assay type: functional
[32] = system: Mus musculus; experiment: Tested for antiinflammatory activity on mouse type II collagen arthritis as Paw swelling of all animals in each group on day 30 at intraperitoneal dose of 3 mg/kg; assay type: functional
[33] = system: Mus musculus; experiment: Tested for antiinflammatory activity on mouse type II collagen arthritis as Paw swelling of all animals in each group on day 30 at intraperitoneal dose of 6 mg/kg; assay type: functional
[34] = system: Mus musculus; experiment: Tested for antiinflammatory activity on mouse type II collagen arthritis as Paw swelling of all animals in each group on day 23 at intraperitoneal dose of 0.75 mg/kg; assay type: functional
[35] = system: Mus musculus; experiment: Tested for antiinflammatory activity on mouse type II collagen arthritis as Paw swelling of all animals in each group on day 23 at intraperitoneal dose of 1.5 mg/kg; assay type: functional
[36] = system: Mus musculus; experiment: Tested for antiinflammatory activity on mouse type II collagen arthritis as Paw swelling of all animals in each group on day 23 at intraperitoneal dose of 3 mg/kg; assay type: functional
[37] = system: Mus musculus; experiment: Tested for antiinflammatory activity on mouse type II collagen arthritis as Paw swelling of all animals in each group on day 23 at intraperitoneal dose of 6 mg/kg; assay type: functional
[38] = system: Mus musculus; experiment: Tested for antiinflammatory activity on mouse type II collagen arthritis as Paw swelling of all animals in each group on day 30 at intraperitoneal dose of 0.38 mg/kg; assay type: functional
[39] = system: Mus musculus; experiment: Tested for antiinflammatory activity on mouse type II collagen arthritis as Paw swelling of all animals in each group on day 44 at intraperitoneal dose of 0.75 mg/kg; assay type: functional
[40] = system: Mus musculus; experiment: Tested for antiinflammatory activity on mouse type II collagen arthritis as Paw swelling of all animals in each group on day 44 at intraperitoneal dose of 3 mg/kg; assay type: functional
[41] = system: Mus musculus; experiment: Tested for antiinflammatory activity on mouse type II collagen arthritis as Paw swelling of all animals in each group on day 37 at intraperitoneal dose of 3 mg/kg; assay type: functional
[42] = system: Mus musculus; experiment: Tested for antiinflammatory activity on mouse type II collagen arthritis as Paw swelling of all animals in each group on day 37 at intraperitoneal dose of 6 mg/kg; assay type: functional
[43] = system: Mus musculus; experiment: Tested for antiinflammatory activity on mouse type II collagen arthritis as Paw swelling of all animals in each group on day 44 at intraperitoneal dose of 0.38 mg/kg; assay type: functional
[44] = system: Mus musculus; experiment: Tested for antiinflammatory activity on mouse type II collagen arthritis as Paw swelling of all animals in each group on day 30 at intraperitoneal dose of 0.75 mg/kg; assay type: functional
[45] = system: Mus musculus; experiment: Tested for antiinflammatory activity on mouse type II collagen arthritis as Paw swelling of all animals in each group on day 30 at intraperitoneal dose of 1.5 mg/kg; assay type: functional
[46] = system: Mus musculus; experiment: Tested for antiinflammatory activity on mouse type II collagen arthritis as Paw swelling of all animals in each group on day 37 at intraperitoneal dose of 0.38 mg/kg; assay type: functional
[47] = system: Mus musculus; experiment: Tested for antiinflammatory activity on mouse type II collagen arthritis as Paw swelling of all animals in each group on day 37 at intraperitoneal dose of 0.75 mg/kg; assay type: functional
[48] = system: Mus musculus; experiment: Tested for antiinflammatory activity on mouse type II collagen arthritis as Paw swelling of all animals in each group on day 37 at intraperitoneal dose of 1.5 mg/kg; assay type: functional
[49] = system: Mus musculus; experiment: Tested for antiinflammatory activity on mouse type II collagen arthritis as Paw swelling of all animals in each group on day 44 at intraperitoneal dose of 6 mg/kg; assay type: functional
[50] = system: Mus musculus; experiment: Tested for antiinflammatory activity on mouse type II collagen arthritis as Paw swelling of all animals in each group on day 23 at intraperitoneal dose of 0.38 mg/kg; assay type: functional

Work on `Nc1nc(N)c2cc(CCc3ccc(C(=O)NC(CCC(=O)O)C(=O)O)s3)cnc2n1` (stereo not given) yielded an Animals [1] of 0%, an Animals [2] of 25% and an Animals [3] of 88%. The Animals [4] was 88%, the Paw swelling [5] was 2.63 mm and the Paw swelling [6] was 2.13 mm. For the same molecule, the Paw swelling [7] was 2.6 mm and the Paw swelling [8] was 2.19 mm.

For `CCCc1c(CNc2ccc(C(=O)NC(CCC(=O)O)C(=O)O)cc2)cnc2nc(N)nc(N)c12` (stereo not given), the IC50 [9] was 8.2 nM, the IC50 [10] was 6.5 nM and the Animals [11] was 0%. It also gave an Animals [12] of 0%, an Animals [13] of 14% and an Animals [14] of 0%. It also gave an Animals [15] of 0%, an Animals [16] of 0% and an Animals [17] of 0%. The Animals [18] was 0%, the Animals [19] was 75% and the Animals [20] was 0%. It also gave an Animals [21] of 29%, an Animals [22] of 0% and an Animals [23] of 88%. For the same molecule, the Animals [24] was 50%, the Animals [25] was 14% and the Animals [26] was 25%. The Animals [27] was 25%, the Animals [28] was 0% and the Animals [29] was 0%. It also gave an Animals [30] of 0%, a Paw swelling [31] of 2.15 mm and a Paw swelling [32] of 2.24 mm. It also gave a Paw swelling [33] of 2.23 mm, a Paw swelling [34] of 2.13 mm and a Paw swelling [35] of 2.12 mm. For the same molecule, the Paw swelling [36] was 2.12 mm, the Paw swelling [37] was 2.13 mm and the Paw swelling [38] was 2.13 mm. The Paw swelling [39] was 2.22 mm, the Paw swelling [40] was 2.2 mm and the Paw swelling [41] was 2.23 mm. For the same molecule, the Paw swelling [42] was 2.22 mm, the Paw swelling [43] was 2.57 mm and the Paw swelling [44] was 2.17 mm. The Paw swelling [45] was 2.14 mm, the Paw swelling [46] was 2.22 mm and the Paw swelling [47] was 2.16 mm. For the same molecule, the Paw swelling [48] was 2.19 mm, the Paw swelling [49] was 2.11 mm and the Paw swelling [50] was 2.11 mm.
